Assay results as given in ChEMBL document CHEMBL1926664, “Synthesis and antiproliferative evaluation of 6-aryl-11-iminoindeno[1,2-c]quinoline derivatives” (2011).

Tests used:
[1] = tested on: MDA-MB-231; experiment: Growth inhibition of human MDA-MB-231 cells after 72 hrs by XTT assay; type: functional; conditions: MDA-MB-231, 72 h
[2] = Growth inhibition of human H1299 cells after 72 hrs by XTT assay; type: functional; conditions: NCI-H1299, 72 h
[3] = Growth inhibition of human Hep3B cells after 72 hrs by XTT assay; type: functional, Hep 3B2
[4] = tested on: HepG2; experiment: Growth inhibition of human HepG2 cells after 72 hrs by XTT assay; type: functional; conditions: HepG2, 72 h
[5] = tested on: MCF7; experiment: Growth inhibition of human MCF7 cells after 72 hrs by XTT assay; type: functional; conditions: MCF7, 72 h
[6] = tested on: A549; experiment: Growth inhibition of human A549 cells after 72 hrs by XTT assay; type: functional; conditions: A549, 72 h

Row | GI50 [1] | GI50 [4] | GI50 [5] | GI50 [6] | SMILES | GI50 [2] | GI50 [3]
1 | 3.07 µM | 4.96 µM | > 10 µM | 2.1 µM | CN(C)CCCO/N=C1\c2cc(OCCCN(C)C)ccc2-c2c(-c3ccc(O)cc3)nc3ccccc3c21 | 5.3 µM | 5.41 µM
2 | > 10 µM | > 10 µM | > 10 µM | > 10 µM | COc1ccc(-c2nc3ccccc3c3c2-c2ccc(OC)cc2/C3=N\O)cc1 | > 10 µM | > 10 µM
3 | 0.7 µM | 5.75 µM | 6.18 µM | 0.91 µM | COc1ccc(-c2nc3ccc(F)cc3c3c2-c2ccc(OC)cc2/C3=N\OCCCN(C)C)cc1 | 0.61 µM | 0.66 µM
4 | 5.33 µM | 5.48 µM | 6.71 µM | 5.27 µM | COc1ccc(-c2nc3ccccc3c3c2-c2ccc(OC)cc2/C3=N\OCCN2CCCC2)cc1 | 6.31 µM | 4.68 µM
5 | 5.99 µM | 9.46 µM | 6.36 µM | 9.24 µM | COc1ccc(-c2nc3ccc(F)cc3c3c2-c2ccc(OC)cc2/C3=N\OCCN2CCCC2)cc1 | 3.15 µM | 3.11 µM
6 | 0.63 µM | 3.77 µM | 6.65 µM | 2.03 µM | CN(C)CCCO/N=C1\c2cc(O)ccc2-c2c(-c3ccc(OCCCN(C)C)cc3)nc3ccccc3c21 | 0.69 µM | 0.61 µM
7 | > 10 µM | > 10 µM | > 10 µM | > 10 µM | COc1ccc(-c2nc3ccc(F)cc3c3c2-c2ccc(OC)cc2/C3=N\OCCN2CCCCC2)cc1 | > 10 µM | > 10 µM
8 | > 10 µM | > 10 µM | > 10 µM | > 10 µM | COc1ccc(-c2nc3ccc(F)cc3c3c2-c2ccc(OC)cc2/C3=N\O)cc1 | > 10 µM | > 10 µM
9 | 9.17 µM |  | > 10 µM | > 10 µM | CCc1c2c(nc3ccc(OC(=O)N4CCC(N5CCCCC5)CC4)cc13)-c1cc3c(c(=O)n1C2)COC(=O)[C@]3(O)CC [IRINOTECAN] | > 10 µM | 
10 | > 10 µM | > 10 µM | > 10 µM | > 10 µM | COc1ccc(-c2nc3ccc(OC)cc3c3c2-c2ccc(OC)cc2/C3=N\O)cc1 | > 10 µM | > 10 µM
11 | 0.33 µM | 5.71 µM | 6.2 µM | 0.53 µM | Oc1ccc(-c2nc3ccc(F)cc3c3c2-c2ccc(OCCN4CCCC4)cc2/C3=N\OCCN2CCCC2)cc1 | 7.09 µM | 0.23 µM
12 | 8.41 µM | > 10 µM | 8.77 µM | > 10 µM | O/N=C1\c2cc(O)ccc2-c2c(-c3ccc(O)cc3)nc3ccc(F)cc3c21 | > 10 µM | 7.6 µM
13 | 0.48 µM | 1.08 µM | 6.04 µM | 0.31 µM | Oc1ccc2c(c1)/C(=N\OCCN1CCCC1)c1c-2c(-c2ccc(OCCN3CCCC3)cc2)nc2ccc(F)cc12 | 0.7 µM | 0.47 µM
14 | 0.93 µM | 1.55 µM | 6.06 µM | 0.5 µM | CN(C)CCCO/N=C1\c2cc(O)ccc2-c2c(-c3ccc(O)cc3)nc3ccccc3c21 | 6.94 µM | 0.67 µM
15 | 0.51 µM | 4.11 µM | 5.92 µM | 0.54 µM | Oc1ccc2c(c1)/C(=N\OCCN1CCCC1)c1c-2c(-c2ccc(OCCN3CCCC3)cc2)nc2ccccc12 | 0.57 µM | 0.92 µM
16 | 4.74 µM | 6.24 µM | 6.28 µM | 6.46 µM | CN(C)CCCO/N=C1\c2cc(O)ccc2-c2c(-c3ccc(O)cc3)nc3ccc(F)cc3c21 | 6.3 µM | 0.69 µM
17 | 0.68 µM | 5.04 µM | 6.26 µM | 0.84 µM | Oc1ccc(-c2nc3ccc(F)cc3c3c2-c2ccc(O)cc2/C3=N\OCCN2CCCC2)cc1 | 6.48 µM | 0.64 µM
18 | 8.47 µM | > 10 µM | > 10 µM | > 10 µM | O/N=C1\c2cc(O)ccc2-c2c(-c3ccc(O)cc3)nc3ccccc3c21 | > 10 µM | > 10 µM
19 | 0.67 µM | 0.66 µM | 6.25 µM | 0.42 µM | CN(C)CCCO/N=C1\c2cc(OCCCN(C)C)ccc2-c2c(-c3ccc(O)cc3)nc3ccc(F)cc3c21 | 0.84 µM | 0.56 µM
20 | 5.15 µM | 6.03 µM | 6.25 µM | 6.42 µM | COc1ccc(-c2nc3ccc(OC)cc3c3c2-c2ccc(OC)cc2/C3=N\OCCN2CCCC2)cc1 | 6.54 µM | 6.17 µM
21 | 7.01 µM | 6.54 µM | 6.57 µM | 6.69 µM | COc1ccc(-c2nc3ccccc3c3c2-c2ccc(OC)cc2/C3=N\OCCCN(C)C)cc1 | 6.61 µM | 3.14 µM
22 | > 10 µM | > 10 µM | > 10 µM | > 10 µM | COc1ccc(-c2nc3ccccc3c3c2-c2ccc(OC)cc2/C3=N\OCCN2CCCCC2)cc1 | > 10 µM | 8.29 µM
23 | 0.078 µM |  | > 10 µM |  | CC[C@@]1(O)C(=O)OCc2c1cc1n(c2=O)Cc2cc3c(CN(C)C)c(O)ccc3nc2-1 [TOPOTECAN] | > 10 µM | 0.22 µM
24 | 0.58 µM | 5.74 µM | 7.83 µM | 0.88 µM | Oc1ccc(-c2nc3ccccc3c3c2-c2ccc(O)cc2/C3=N\OCCN2CCCC2)cc1 | 6.06 µM | 0.52 µM
25 | 6.13 µM | 5.95 µM | 6.3 µM | 6.62 µM | COc1ccc(-c2nc3ccc(OC)cc3c3c2-c2ccc(OC)cc2/C3=N\OCCCN(C)C)cc1 | 5.7 µM | 6.49 µM
26 | 0.68 µM | 4.09 µM | 6.42 µM | 0.79 µM | Oc1ccc(-c2nc3ccccc3c3c2-c2ccc(OCCN4CCCC4)cc2/C3=N\OCCN2CCCC2)cc1 | 6.51 µM | 0.78 µM
